According to patent US7919101B2 (priority 2008, dated 2011):
Several values for one entry are separate records, joined by “and”; a condition that tells them apart may be missing. Equal values may be shown once. Read-outs that look alike come from different tables or passages of the source. Residues, ends and D or L forms follow the SMILES beside them.

Assays:
[1] = tested on: HIV-1-mediated cell-cell fusion (H9/HIV-1IIIB cells and MT-2 cells); assay: HIV-1-mediated cell-cell fusion, dye transfer assay; type: cell-based
Protocol: The inhibitory activities of the compounds on HIV-induced cell-cell fusion were determined using a dye transfer assay (Jiang S et al. Proc SPIE 3926:212-219, 2000). Briefly, H9/HIV-1IIIB cells were pre-labeled with a fluorescent dye, Calcein AM (Molecular Probes, Inc.), and incubated with a testing compound at a graded concentration at 37° C. for 30 min in a 96-well cell culture plate. Then the CD4^+ MT-2 cells were added to the H9/HIV-1IIIB cells at a ratio of 10:1, followed by incubation at 37° C. for 2 hrs. The fused and unfused calcein-labeled HIV-1-infected cells were counted under an inverted fluorescence microscope with an eyepiece micrometer disc.

[2] = tested on: viruses that are resistant to T-20; conditions: viruses resistant to T-20; cited from earlier work
[3] = biological target: gp41 six-helix bundle formation between N46 and C34-biotin (Human immunodeficiency virus type 1 group M subtype B, UniProt P04578); type: biochemical, HIV-1; conditions: triple combination of T-20, T-1249 and T-1144
Chain of gp41 six-helix bundle formation between N46 and C34-biotin (P04578 536-581): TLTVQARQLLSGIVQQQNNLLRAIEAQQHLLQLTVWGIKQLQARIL
Protocol: 6. Enzyme-linked Immunosorbent Assay (ELISA). […] The plate was then incubated for 30 min and added to horseradish peroxidase (HRP) labeled with streptavidin (SA-HRP) (ZYMED Laboratories). The plate was washed with the washing buffer (PBS containing 0.01% Tween 20) for 6 times to remove any unbound peptide. The substrate TMB was added sequentially. Absorbance at 450 nm (A450) was measured using an ELISA reader.

[4] = tested on: HIV-1 RU570 (clade G, R5); assay: Inhibition of infection by primary HIV-1 isolate RU570; type: cell-based; conditions: for Dose reduction: RU570
Protocol: Inhibitory activity of fusion/entry inhibitors on infection by a primary HIV-1 isolate was determined as previously described (Jiang S et al. Antimicrob Agents Chemother 48:4349-4359, 2004). Peripheral blood mononuclear cells (PBMCs) were isolated from the blood of healthy donors by standard density gradient centrifugation using Histopaque-1077 (Sigma). The cells were plated in 75 cm^2 plastic flasks and incubated at 37° C. for 2 hrs. The nonadherent cells were collected and resuspended at 5×10^6 in 10 ml RPMI-1640 medium containing 10% FBS, 5 μg/ml PHA (phytohemagglutinin) and 100 U/ml IL-2 (Sigma), followed by incubation at 37° C. for 3 days. The PHA-stimulated cells were infected with a primary HIV-1 isolates at 0.01 MOI in the absence or presence of a compound at graded concentrations. Culture media were changed every 3 days. The supernatants were collected 7 days post-infection and tested for p24 antigen by ELISA as described above. The percent inhibition of p24 production and EC50 values were calculated as described above.
4. Synergy analysis. […] In all analyses, HIV fusion/entry inhibitors were assumed to act noncompetitively, which led to a more conservative estimate of synergy. CI values<1 and >1 indicate synergy and antagonism, respectively. Dose reductions were calculated as the compound concentrations required for inhibition of HIV-1 replication when the compound was used alone and in combination. The statistic analysis was performed by the One-Way Analysis of Variance (One-Way ANOVA) method using Origin 6.1 software.

[5] = in vivo; cited from earlier work
[6] = in combination T-20:T-1144 (4:1)
[7] = in combination T-20:T-1144 (4:1) vs alone
[8] = in combination T-20:T-1249:T-1144 (4:1:1)
[9] = in combination T-20:T-1249:T-1144 (4:1:1) vs alone
[10] = in combination T-1144:C34 (2:1)
[11] = in combination T-1144:C34 (2:1) vs alone
[12] = in combination T-1249:T-1144 (1:1)
[13] = in combination T-1249:T-1144 (1:1) vs alone

Compound: CC[C@H](C)[C@H](NC(=O)[C@H](C)NC(=O)[C@H](CCCNC(=N)N)NC(=O)[C@H](CC(=O)O)NC(=O)[C@H](Cc1c[nH]c2ccccc12)NC(=O)[C@H](C)NC(=O)[C@H](CCC(=O)O)NC(=O)[C@H](Cc1c[nH]c2ccccc12)NC(=O)[C@@H](NC(=O)[C@@H](NC(C)=O)[C@@H](C)O)[C@@H](C)O)C(=O)N[C@@H](C)C(=O)N[C@@H](CCC(=O)O)C(=O)N[C@@H](Cc1ccc(O)cc1)C(=O)N[C@@H](C)C(=O)N[C@@H](C)C(=O)N[C@@H](CCCNC(=N)N)C(=O)N[C@H](C(=O)N[C@@H](CCC(=O)O)C(=O)N[C@@H](C)C(=O)N[C@@H](CC(C)C)C(=O)N[C@@H](CC(C)C)C(=O)N[C@@H](CCCNC(=N)N)C(=O)N[C@@H](C)C(=O)N[C@@H](CC(C)C)C(=O)N[C@@H](CCC(N)=O)C(=O)N[C@@H](CCC(=O)O)C(=O)N[C@@H](CCC(N)=O)C(=O)N[C@@H](CCC(N)=O)C(=O)N[C@@H](CCC(=O)O)C(=O)N[C@@H](CCCCN)C(=O)N[C@@H](CC(N)=O)C(=O)N[C@@H](CCC(=O)O)C(=O)N[C@@H](C)C(=O)N[C@@H](C)C(=O)N[C@@H](CC(C)C)C(=O)N[C@@H](CCCNC(=N)N)C(=O)N[C@@H](CCC(=O)O)C(=O)N[C@@H](CC(C)C)C(N)=O)[C@@H](C)CC [T-1144] (Ac-TTWEAWDRAIAEYAARIEALLRALQEQQEKNEAALREL-NH2; N-terminus and C-terminus assumed)
- EC70 Concentration Mix [1, 6]: 0.008 nM
- EC95 Concentration Mix [1, 6]: 0.013 nM
- Potency increase at EC50 [1, 7]: 435.500 fold
- Potency increase at EC70 [1, 7]: 444.250 fold
- Potency increase at EC90 [1, 7]: > 438 fold and 439.455 fold
- Potency increase at EC95 [1, 7]: 458.462 fold
- EC70 Concentration Mix [1, 8]: 0.005 nM
- EC95 Concentration Mix [1, 8]: 0.007 nM
- Potency increase at EC50 [1, 9]: 653.250 fold
- Potency increase at EC70 [1, 9]: 710.800 fold
- Potency increase at EC90 [1, 9]: 805.667 fold
- Potency increase at EC95 [1, 9]: 851.429 fold
- EC90 ([1]; in combination T-20:T-1249:T-1144 (4:1:1), read-out: EC90 Concentration Mix): 0.006 nM
- EC70 Concentration Mix [1, 10]: 0.408 nM
- EC95 Concentration Mix [1, 10]: 0.659 nM
- Potency increase at EC50 [1, 11]: 8.511 fold
- Potency increase at EC70 [1, 11]: 8.711 fold
- Potency increase at EC95 [1, 11]: 9.044 fold
- EC90 ([1]; in combination T-1144:C34 (2:1), read-out: EC90 Concentration Mix): 0.543 nM
- EC70 Concentration Mix [1, 12]: 0.232 nM
- EC95 Concentration Mix [1, 12]: 0.374 nM
- Potency increase at EC50 [1, 13]: 15.017 fold
- Potency increase at EC70 [1, 13]: 15.319 fold
- Potency increase at EC90 [1, 13]: 15.695 fold
- Potency increase at EC95 [1, 13]: 15.936 fold
- EC90 ([1]; in combination T-1249:T-1144 (1:1), read-out: EC90 Concentration Mix): 0.308 nM
- EC70 Concentration Alone ([1]; peptide tested alone): 3.554 nM
- EC95 Concentration Alone ([1]; peptide tested alone): 5.960 nM
- EC50 ([1]; peptide tested alone, read-out: EC50 Concentration Alone): 2.61 nM
- EC90 ([1]; peptide tested alone, read-out: EC90 Concentration Alone): 4.83 nM
- activity relative to T-20 [2]: thousands fold more active than T-20
- Dose reduction, six-helix bundle formation [3]: ~2 fold
- EC50 ([4]; RU570 (G, R5) primary isolate, peptide alone, read-out: EC50 alone): 24.2 nM
- Dose reduction ([4]; T-20+T-1249+T-1144 4:1:1): 21.23 fold
- Dose reduction ([4]; T-20 combined with T-1144): 18.62 fold
- pharmacokinetic properties improved [5]: up to 100 fold
